The values that follow come from article PMC5958115, “A novel small molecule chaperone of rod opsin and its potential therapy for retinal degeneration” (Nature Communications, 2018).

A short description of series [1]: Metabolic stability in mouse liver microsomes. The note with it: 5 µM, NADPH, 37 °C. In kind it is in vitro ADME. The procedure:
(§1) A standard metabolic stability assay was performed in the presence of mouse or human liver microsomes. YC-001 (5 µM) was incubated with the microsomes (0.125 mg mL^−1) resuspended in 0.2 mL of PBS buffer, pH 7.4 composed of 10 mM Na2HPO4, 1.8 mM KH2PO4, 137 mM NaCl, and 2.7 mM KCl. The enzymatic reaction to produce oxidized metabolites was initiated by addition of NADPH (1 mM). Samples were incubated at 37 °C for up to 240 min. Incubation without the cofactor was conducted in parallel to assess NADPH-independent clearance. The reactions were stopped with 0.2 mL of methanol followed by 0.3 mL chloroform. Residual YC-001 was extracted by vigorous shaking. To facilitate phase separation, the samples were spun down for 2 min, 15,000×g. The chloroform fraction was collected, dried down, and the extracted organic compounds were redissolved in 0.2 mL of methanol. To quantify YC-001, the samples were injected onto an Eclipse XDB-C18 column (4.6 × 150 mm, 5 µm) (Agilent Technologies) equilibrated with solvent composed of 30% acetonitrile in water (v/v), and 0.1% formic acid. YC-001 was eluted in a gradient of acetonitrile in water (30–100%) developed within 15 min at a flow rate of 1 mL min^−1, detected at 350 nm, and quantified by correlating peak areas with known quantities of an original synthetic standard. […]

Series [2] in a line: Metabolic stability in human liver microsomes. The note with it: 5 µM, NADPH, 37 °C. In kind it is in vitro ADME. The procedure: as §1
The target of series [3] is T1, human rod opsin C110Y (Homo sapiens, UniProt P08100, C110Y).
T1 construct: expressed in transfected cells; host or cells: NIH3T3 cells, transient transfection with pcDNA3.1-hOpsin mutant
As to the kind of experiment: Cell-surface immunostain of rod opsin mutant in transfected NIH3T3 cells. It counts as cell-based. The note with it: 10 µM, 24 h. The procedure: Human rhodopsin cDNA was placed into the pcDNA3.1(+) vector (pcDNA3.1-hOpsin). Site-directed mutagenesis was performed following the QuickChange II site-directed mutagenesis kit (Agilent Technologies Inc.). Primers for the following mutations were as follows: T4R-forward, 5′-[…]-3′; T4R-reverse, 5′-[…]-3′; P53R-forward, 5′-[…]-3′; P53R-reverse, 5′-[…]-3′; G106R-forward, 5′-[…]-3′; G106R-reverse, 5′-[…]-3′; C110Y-forward, 5′-[…]-3′; C110Y-reverse, 5′-[…]-3′; D190N-forward, 5′-[…]-3′; D190N-reverse, 5′-[…]-3′; P267L-forward, 5′-[…]-3′; P267L-reverse, 5′-[…]-3′. DNA vectors with rhodopsin mutations were confirmed by Sanger sequencing. After NIH3T3 cells were transfected with pcDNA3.1-hOpsin or its mutants for 24 h, these cells were resuspended and seeded into a 96-well plate with an optic bottom (Corning). […] Each condition was repeated in three wells. The treated plate was covered in tin foil and incubated at 37 °C with 5% CO2 for 24 h. Cells were then immunostained with 50 µg mL^−1 Alexa488-conjugated B6-30 anti-rhodopsin antibody. Cells were not exposed to detergents so that cell membranes were kept intact and only rhodopsin on the cell surface was immunostained. Alexa 488 fluorescence was imaged by the ImageExpress (Molecular Devices) high-content imager with a ×20 objective.

Series [4] addresses T2, human clarin-1 N48K (Homo sapiens, UniProt P58418, N48K).
T2 construct: expressed in transfected cells
As to the kind of experiment: Image-based analysis of Clarin-1-N48K-Venus in HEK 293 cells. It counts as cell-based. Particulars: 24 h. The procedure: HEK 293 stable cells co-expressing human clarin-1 N48K-Venus fluorescent protein and DsRed-Express-DR fusion protein were obtained from Dr. Yoshikazu Imanishi at Case Western Reserve University (CWRU). Cells were cultured in DMEM medium with 10% FBS following guidelines from ATCC. To test effects of YC-001 treatments on clarin-1 N48K-Venus amounts in these cells, an image-based assay was performed. Briefly, cells were seeded at 20,000 cells per well in 40 µL per well DMEM medium with 10% FBS in a 384-well PerkinElmer View plate coated with poly-D-lysine and cultured at 37 °C with 5% CO2 for 24 h. Cells then were treated with 10 µL per well DMEM medium with 10% FBS containing 5× the final concentration of tested compounds. […] Each compound was tested with 10 doses in a twofold dilution series, featuring three biological replicates. The 384-well plate was put back for incubation at 37 °C with 5% CO2. After 24 h of exposure to test compounds, the plate was removed, and the medium was aspirated and replaced by 20 µL per well of 4% paraformaldehyde for fixation at RT for 20 min. […] Images were analyzed by the Columbus storage and analysis system (PerkinElmer). Hoechst33342 fluorescence images were used to define nuclei and count cells. […] YFP and DsRed fluorescence intensities per cell were measured in each well.

For series [5], the system named is P23H opsin. Particulars: cited from earlier work.

T2 sequence (P58418 whole entry N48K): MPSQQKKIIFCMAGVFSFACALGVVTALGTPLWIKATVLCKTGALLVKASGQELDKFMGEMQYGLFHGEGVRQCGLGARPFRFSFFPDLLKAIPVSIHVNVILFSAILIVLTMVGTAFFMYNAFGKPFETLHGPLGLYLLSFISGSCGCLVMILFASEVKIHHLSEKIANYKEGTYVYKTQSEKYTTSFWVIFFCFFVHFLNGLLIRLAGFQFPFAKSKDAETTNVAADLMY

On to `O=C1OCC(c2ccc(Cl)s2)=C1c1cccs1` [YC-001], for which the “initial clearance in liver microsomes” value in series [1] was “even higher initial clearance compared to the fast clearance drug, verapamil”; in series [2], “even higher initial clearance compared to the fast clearance drug, verapamil”. The “cell-surface staining of C110Y rod opsin” value in series [3] was “not P53R or C110Y mutants increased significantly”. Also, the “effect on amount or stability of the clarin-1 N48K mutant” value in series [4] is on record as “did not affect the amount or stability”. Besides, the “effect of co-treatment with scriptaid” value in series [5] is “synergistic effect”.
